The results in this text go back to patent US4757083A, “Novel pyrrolidinylamide ester derivatives having anti-prolyl endopeptidase activity and synthesis and use thereof” (Suntory Limited, priority 1985, dated 1988).

Sequence of prolyl endopeptidase (P27028 21-705): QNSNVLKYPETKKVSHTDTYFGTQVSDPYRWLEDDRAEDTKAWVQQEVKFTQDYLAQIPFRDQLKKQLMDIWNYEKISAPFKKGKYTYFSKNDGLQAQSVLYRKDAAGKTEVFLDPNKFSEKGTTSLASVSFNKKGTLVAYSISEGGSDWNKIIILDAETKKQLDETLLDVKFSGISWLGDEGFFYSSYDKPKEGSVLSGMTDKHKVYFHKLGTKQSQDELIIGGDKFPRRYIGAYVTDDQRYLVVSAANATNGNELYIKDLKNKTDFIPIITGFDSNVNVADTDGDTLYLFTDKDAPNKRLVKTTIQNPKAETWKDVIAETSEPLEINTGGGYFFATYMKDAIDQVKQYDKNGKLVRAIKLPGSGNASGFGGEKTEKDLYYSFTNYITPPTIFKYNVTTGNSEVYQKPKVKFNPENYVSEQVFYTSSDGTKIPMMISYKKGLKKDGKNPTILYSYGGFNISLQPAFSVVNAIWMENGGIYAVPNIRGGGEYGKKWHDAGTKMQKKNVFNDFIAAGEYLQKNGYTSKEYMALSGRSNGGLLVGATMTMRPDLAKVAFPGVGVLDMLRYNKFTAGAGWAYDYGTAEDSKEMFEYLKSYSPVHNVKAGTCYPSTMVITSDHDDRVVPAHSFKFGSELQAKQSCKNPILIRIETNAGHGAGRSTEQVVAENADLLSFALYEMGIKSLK

The target of the assay is prolyl endopeptidase (Elizabethkingia meningoseptica, UniProt P27028). Kind of assay: Measurement of anti-prolyl endopeptidase activity (Z-glycyl-proline-β-naphthylamide substrate). It counts as biochemical. To be noted: amount for 50% inhibition, pH 7.0, 35° C., 10 minutes, absorbance at 410 nm. The protocol:
The method of Yoshimoto and Tsuru [T. Yoshimoto and D. Tsuru, Agric. Biol. Chem., 42, 2417 (1978)] was used to measured the anti-prolyl endopeptidase activities of several compounds of the present invention. A mixture of 0.0025M Z-glycyl-proline-β-naphthylamide (0.25 ml), 0.1M phosphate buffer (pH, 7.0; 0.99 ml) and a solution of a particular anti-prolyl endopeptidase compound (0.01 ml) was incubated in a test tube at 37° C. for 3 minutes. Thereafter, 0.1 ml of a solution of prolyl endopeptidase (0.2 U/ml) was added and the mixture was incubated at 35° C. for 10 minutes. After the reaction, 2.0 ml of Triton X-100 in 1M acetate buffer (pH, 4.0) was added to the reaction mixture so that the final concentration of the surfactant was 10%. The mixture was left at room temperature for 15 minutes and the absorbance (a) at 410 nm was measured.
A sample of a blind test was prepared by using the buffer instead of the anti-prolyl endopeptidase compound and its absorbance (b) was also measured. The percent inhibition of prolyl endopeptidase was calculated by the formula: […]
and the amount of a specific compound needed to achieve 50% inhibition (IC50) was determined.
Compound `CC(C)CC(OC(=O)CCCc1ccccc1)C(=O)N1CCCC1` (stereo not drawn) [Example 1, N-[2-(γ-phenyl)butyryloxy-4-methylvaleryl]pyrrolidine] had an IC50 of 0.70 μg/test tube.
The value for `CC(C)C(OC(=O)CCCc1ccccc1)C(=O)N1CCCC1` (stereo not drawn) [Example 2, N-[2-(γ-phenyl)butyryloxy-3-methylbutyryl]pyrrolidine] was 0.90 μg/test tube; that for `CCCCCCC(OC(=O)CCCc1ccccc1)C(=O)N1CCCC1` (stereo not drawn) [Example 3, N-[2-(γ-phenyl)butyryloxy-n-capryloyl]pyrrolidine] was 4.0 μg/test tube.
